Results taken from publication PMC9695592, “Phenotypic Evaluation of Nucleoside Analogues against Trypanosoma cruzi Infection: In Vitro and In Vivo Approaches” (Molecules, 2022).
Where two headings read alike, the source gives them in different places.

Assays:
[1] = test system: promastigotes of LmexCas9; test: Resazurin-based assay on LmexCas9 promastigotes; assay type: cell-based, Leishmania mexicana
Protocol: (§1) Bloodstream trypomastigotes of the Y strain (DTU II) were obtained by cardiac puncture of infected Swiss Webster mice on the parasitemia peak to perform drug sensitivity assays. Trypomastigote forms of the Tulahuen-β gal strain were collected from the supernatant of previously infected L929 cell cultures (host/parasite cell ratio 10:1). The intracellular forms T. cruzi were studied by the infection of L929 and H9C2 (2D and 3D) cell cultures infected for 48 and 24 h with trypomastigotes of Tulahuen-β gal and Y strains, respectively. The Leishmania mexicana-Cas9 T7 strain (LmexCas9) was derived from L. mexicana WT promastigotes by expression of the Streptococcus pyogenes Cas9 nuclease gene ‘Cas9′ and maintained on 32 μg/mL hygromycin [51]. This strain and the derived strains Cas9^ΔNT1 and Cas9^ΔNT1+TcrNT2 were cultured in HOMEM medium supplemented with 10% of FBS and 1% Penicillin-Streptomycin antibiotic in unvented flasks at 25 °C [52]. The Cas9^ΔNT1 strain is identical to Cas9 except that the LmexNT1.1/NT1.2 locus encoding the L. mexicana adenosine/ pyrimidine transporters was excised using Cas9 [17, 40]. Cas9^ΔNT1+TcrNT2 is the further modification of that strain by the expression of the T. cruzi nucleoside transporter 2 (TcrNT2) gene in it, using the vector pNUS-HcN [53]. Appropriate antibiotics were added for the selection and maintenance of transfectants.
(§2) The EC50 values for nucleoside analogues against Leishmania mexicana promastigotes of the Cas9, Cas9^ΔNT1 and Cas9^ΔNT1+TcrNT2 strains used a resazurin-based assay, as described. Briefly, the assays were performed in standard HOMEM medium and culture conditions, in white opaque 96-well plates. For each test compound (stored as a 40 mM stock solution in 100% DMSO at −20 °C), a doubling dilution was performed over 2 rows of the plate, keeping the last well free as no-drug control with HOMEM only (23 doubling dilutions; highest concentration 100 µM). To each well, 100 µL of HOMEM containing 2 × 10^5 cells of the appropriate L. mexicana line was added, and the plates incubated for 72 h at 25 °C, followed by the addition of 20 µL of resazurin solution and further incubation for 48 h. Fluorescence was read on a FLUOstar OPTIMA plate reader (BMG Labtech, Germany), at an excitation wavelength of 544 nm and an emission wavelength of 620 nm. The EC50 values were determined by the GraphPad Prism 8.0 software using an equation for a sigmoid curve with variable slope. Pentamidine was used as positive control, and every experiment was independently performed at least 3 times independently.

[2] = test system: promastigotes of Cas9^ΔNT1; test: Resazurin-based assay on Cas9^ΔNT1 promastigotes; assay type: cell-based, Leishmania mexicana; settings: Leishmania mexicana, read-out: Cas9^ΔNT1 EC50 (μM), promastigotes, resazurin-based assay, highest concentration 100 µM
Protocol: as §1, §2

LmexNT1 = LmexNT1 (Leishmania mexicana, UniProt E9AQB5); test: Inhibition of [3H]-adenosine uptake by LmexNT1.1 expressed in L. mexicana promastigotes; assay type: biochemical
Protocol: Figure 2 Uptake of 50 nM [^3H]-adenosine by LmexNT1.1 expressed in L. mexicana promastigotes from which both original alleles of LmexNT1.1/NT1.2 and of LmexNT2 had been deleted by CRISPR/cas9. Incubation time was 10 s, well within the linear phase of uptake. Symbols represent averages of triplicate determinations, and error bars indicate ± SEM when not shown error bars fall within the symbol. The graph shown is a single experiment in triplicate, representative of three identical, independent repeats.
Uptake of 50 nM 2,8-^3H-adenosine (American Radiolabelled Chemicals (ART0287A), 40 Ci/ mmol) was exactly measured, exactly as described. Briefly, promastigotes were washed into the standard assay buffer (AB) by centrifugation, and aliquots of 100 µL containing 10^7 parasites were incubated with the radiolabel on top of an oil layer in a microfuge tube, for exactly 5 s. The incubation was stopped by the addition of 800 µL of ice-cold 1 mM adenosine in AB and immediate centrifugation through the oil layer to separate cells from the remaining extracellular radiolabel. Cell pellets were collected in scintillation vials after flash freezing in liquid nitrogen, by cutting of the tip of the microfuge tube. The promastigotes were then solubilised in 1% SDS, and scintillation fluid was added (Scintlogic U, Lablogic), and radioactivity was quantified in a Hidex 300SL scintillation counter (Lablogic). Data was plotted using non-linear regression with an equation for a sigmoid curve with a variable slope in Prism v8 (GraphPad).

[3] = test system: promastigotes of Lmex^ΔNT1+TcrNT2; test: Resazurin-based assay on Cas9^ΔNT1+TcrNT2 promastigotes; assay type: cell-based, Leishmania mexicana; settings: for EC50: Leishmania mexicana, read-out: Lmex^ΔNT1+TcrNT2 EC50 (μM); for Lmex^ΔNT1+TcrNT2 Sensitization (fold): ratio of the EC50 values of the Cas9^ΔNT1 and Cas9^ΔNT1+TcrNT2 strains
Protocol: as §1, §2

H9C2 2D cultures = test: Cardiotoxicity on H9C2 monolayers (2D), PrestoBlue; assay type: cell-based; settings: Rattus norvegicus, 168 h; 2D H9C2, seven days of compound incubation; 95% confidence interval in brackets; read-out: Cardiotoxic profile IC50 (µM) 2D
From the text: (§3) L929 cell lines were used to evaluate the effect of the nucleoside derivatives on the cellular viability of mammalian host cells and to assess their activity against intracellular forms of T. cruzi (Tulahuen strain expressing E. coli β-galactosidase gene, DTU VI) as reported. 2D and 3D culture systems of rat cardiomyoblast cell lines (H9C2(2-1)) were used to evaluate cardiotoxicity and to test the derivatives’ activity on intracellular forms (Y strain, DTU II). In all assays, the cell cultures were maintained at 37 °C under an atmosphere of 5% CO2.
L929 cells seeded in sterile 96-well microtiter plates were exposed or not to increasing concentrations (up to 200 µM) of the compounds. […] Cellular viability was assessed through AlamarBlue® (resazurin sodium salt) colorimetric assay, and the results were expressed as % reduction in cell growth/viability compared to untreated control, and an IC50 value determined. For the assays using H9C2 cultures, 25 × 10^3 cells/well were seeded in a 96-well microtiter plates (flat and U bottoms, precoated with agarose 1% for preparing 2- and 3D matrices, respectively) and maintained at 37 °C [48, 54].
[…] Cell viability was measured using the PrestoBlue® (PB) colorimetric assay, the results evaluated as % reduction in cell growth/viability compared to untreated control, and an IC50 value determined. The data results from at least two independent experiments done in at least duplicates.

H9C2 3D cultures = test: Cardiotoxicity on H9C2 organoids (3D), PrestoBlue; assay type: cell-based, rat; settings: Rattus norvegicus, H9c2, 168 h, 3D H9C2, seven days of compound incubation; 95% confidence interval in brackets; read-out: Cardiotoxic profile IC50 (µM) 3D
From the text: as §3
L929 cells seeded in sterile 96-well microtiter plates were exposed or not to increasing concentrations (up to 200 µM) of the compounds. After seven days of incubation, the cell growth of treated cultures was compared to untreated control cells (100% cell growth). Cellular viability was assessed through AlamarBlue® (resazurin sodium salt) colorimetric assay, and the results were expressed as % reduction in cell growth/viability compared to untreated control, and an IC50 value determined. For the assays using H9C2 cultures, 25 × 10^3 cells/well were seeded in a 96-well microtiter plates (flat and U bottoms, precoated with agarose 1% for preparing 2- and 3D matrices, respectively) and maintained at 37 °C [48, 54].
The cardiac cultures were exposed or not to increasing concentrations of the nucleoside derivatives (up to 300 µM), and after seven days of incubation, their physiology and morphology was evaluated by light microscopy. Cell viability was measured using the PrestoBlue® (PB) colorimetric assay, the results evaluated as % reduction in cell growth/viability compared to untreated control, and an IC50 value determined. The data results from at least two independent experiments done in at least duplicates.

[4] = Leishmania mexicana, read-out: Cas9 EC50 (μM), promastigotes, resazurin-based assay, highest concentration 100 µM

Sequence of LmexNT1 (E9AQB5 entry or part of it): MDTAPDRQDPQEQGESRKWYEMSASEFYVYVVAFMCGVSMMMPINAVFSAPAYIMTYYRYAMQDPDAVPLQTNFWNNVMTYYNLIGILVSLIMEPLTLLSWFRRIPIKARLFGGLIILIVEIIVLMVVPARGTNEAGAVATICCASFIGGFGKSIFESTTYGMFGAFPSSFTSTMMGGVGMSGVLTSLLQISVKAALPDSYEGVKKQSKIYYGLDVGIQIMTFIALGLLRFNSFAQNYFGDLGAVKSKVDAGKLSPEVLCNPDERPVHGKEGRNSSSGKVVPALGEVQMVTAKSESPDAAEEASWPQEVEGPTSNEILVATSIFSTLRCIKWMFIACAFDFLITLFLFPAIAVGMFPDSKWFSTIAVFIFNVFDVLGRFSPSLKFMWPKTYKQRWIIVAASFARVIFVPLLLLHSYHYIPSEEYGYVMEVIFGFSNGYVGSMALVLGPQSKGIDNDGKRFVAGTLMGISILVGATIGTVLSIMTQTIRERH

Row | SMILES | EC50 [1, 4] [µM] | EC50 [2] [µM] | Ki (LmexNT1) [µM] | EC50 [3] [µM] | Lmex^ΔNT1+TcrNT2 Sensitization (fold) [3] [fold] | EC50 ([1]; read-out: Cas9 EC50, promastigotes, resazurin-based assay, highest concentration 100 µM) [µM] | IC50 (H9C2 2D cultures) [µM] | IC50 (H9C2 3D cultures) [µM]
1 | Nc1ncnc2c1ccn2[C@@H]1O[C@H](CO)[C@@H](O)[C@H]1O [Tubercidin, reference compound] | 1.02 ± 0.16 | 25.7 ± 0.94 | 5.8 ± 0.6 |  |  |  |  | 
2 | Nc1ncnc2c1c(-c1ccc(Cl)cc1)cn2[C@@H]1O[C@H](CO)[C@@H](O)[C@H]1O [TH1012] | 52.5 ± 0.3 | 280 ± 18 |  | 96.6 ± 0.3 | 2.9 |  |  | 
3 | Nc1ncnc2c1c(-c1ccc(Cl)c(Cl)c1)cn2[C@@H]1O[C@H](CO)[C@@H](O)[C@H]1O [FH3147, 7-(3,4-dichlorophenyl)tubercidin] | 8.4 ± 1.6 | > 100 |  | 13.7 ± 1.25 |  | 8.41 ± 1.61 |  | 
4 | Nc1ncnc2c1c(Cl)cn2[C@@H]1O[C@H](CO)[C@@H](O)[C@H]1O [FH3169] | 0.24 ± 0.06 | 2 ± 0.19 | 2.8 ± 0.2 | 0.32 ± 0.05 | 6.3 |  |  | 
5 | Nc1ncnc2c1c(-c1ccccc1)cn2[C@@H]1O[C@H](CO)[C@@H](O)[C@H]1O [TH1004] | 37 ± 0.23 | 138 ± 10 | 3.8 ± 0.3 | 101 ± 0.5 | 1.37 |  |  | 
6 | N=C(N)c1ccc(OCCCCCOc2ccc(C(=N)N)cc2)cc1 [Pentamidine, reference compound] | 0.87 ± 0.1 | 1.25 ± 0.22 |  | 1.12 ± 0.17 | 1.11 |  | 46 | > 200
